The values below come from ChEMBL document CHEMBL4373717, “Coumarin-containing hybrids and their anticancer activities” (Eur J Med Chem, 2019).

Test [1] deals with HeLa. Kind of test: Anticancer activity against human HeLa cells by MTT assay. The test is classed as functional, cell-based. Background: Tetrazolium dyes change colour on reduction, which living cells bring about.
For test [2], the system named is MDA-MB-231. Kind of test: Anticancer activity against human MDA-MB-231 cells by MTT assay. The test is classed as functional, cell-based.
Test [3] relates to A549. The test can be described thus: Anticancer activity against human A549 cells by MTT assay. The test is classed as functional, cell-based.
In test [4] the test system is K562. Kind of test: Anticancer activity against human K562 cells by MTT assay. The test is classed as functional, cell-based.
In test [5] the test system is MCF7. The test can be described thus: Cytotoxicity against human MCF7 cells assessed as reduction in cell viability by MTT assay. The test is classed as functional, cell-based. As to conditions: Homo sapiens, MCF7.
In test [6] the test system is BHK-21. The test can be described thus: Cytotoxicity against BHK21 cells assessed as reduction in cell viability after 48 hrs by SRB assay. The test is classed as cell-based. As to conditions: Mesocricetus auratus, BHK-21, 48 h. Background: Sulforhodamine B stains cellular protein and so reports cell mass.
The test system of test [7] is NCI-H157. The test can be described thus: Cytotoxicity against human NCI-H157 cells assessed as reduction in cell viability after 48 hrs by SRB assay. The test is classed as functional, cell-based. The note with it: NCI-H157, 48 h.
For test [8], the system named is HepG2. The test can be described thus: Cytotoxicity against human HepG2 cells assessed as reduction in cell viability by SRB assay. The test is classed as functional, cell-based.
Test [9] deals with DU-145. The test can be described thus: Cytotoxicity against human DU145 cells assessed as reduction in cell viability by SRB assay. The test is classed as functional, cell-based.
Test [10] concerns A549. The test can be described thus: Cytotoxicity against human A549 cells assessed as reduction in cell viability by SRB assay. The test is classed as functional, cell-based.
Test [11] deals with MCF7. The test can be described thus: Cytotoxicity against human MCF7 cells assessed as reduction in cell viability by SRB assay. The test is classed as functional, cell-based.
Test [12] has as its system HeLa. Kind of test: Cytotoxicity against human HeLa cells assessed as reduction in cell viability by SRB assay. The test is classed as functional, cell-based.
The subject of test [13] is SK-OV-3. The test can be described thus: Cytotoxicity against human SKOV3 cells assessed as reduction in cell viability by SRB assay. The test is classed as functional, cell-based.
The nature of test [14]: Cytotoxicity against human MCF7/DX cells assessed as reduction in cell viability by SRB assay. The test is classed as functional, cell-based.
Test [15] concerns MCF7. The test can be described thus: Cytotoxicity against human MCF7 cells assessed as reduction in cell viability after 48 hrs by MTT assay. The test is classed as functional, cell-based. The note with it: MCF7, 48 h.

Values after ≈ are worked out from the molar mass of the structure shown. Where only a bound is given, the exact number is not on record here.

As a reminder, the IC50 is the concentration that gives 50% inhibition. Consider `COc1ccc(/N=c2\scc(-c3cc4ccccc4oc3=O)n2-n2c(C)nn(-c3ccc(C)cc3)c2=O)cc1`, for which the IC50 in [1], in [2], in test [3] and in [4] was 0.16 to 1.12 µg/mL (≈ 0.298 to 2.08 µM) throughout.

Turning to `Cc1cc(=O)oc2cc(/N=N/c3ccccc3)c(O)c(/N=N/c3ccccc3)c12`, the IC50 in [5] was found to be 1.87 µg/mL (≈ 4.86 µM).

On to `O=c1oc2ccccc2cc1-c1nnc2n1N=C(c1ccc(-c3ccccc3)cc1)CS2`, for which the half-inhibitory concentration (IC50) in test [6] and in [7] was 1.01 to 5.72 µM each time.

Consider `Cc1ccc2c(c1)/C(=N/O)C(=O)N2CCOCCOc1ccc2c(C)cc(=O)oc2c1`, for which the IC50 in test [8], in [9], in test [10], in test [11], in [12] and in test [13] was 10.3 to 50 µM throughout. Further, the IC50 in [14] was 10.3 to 50 µM.

On to `Cc1cc(=O)oc2cc(OCCOCCN3C(=O)/C(=N\O)c4ccccc43)ccc12`, for which the concentration for half-maximal inhibition (IC50) in test [8], in test [9], in test [10], in test [11], in [12] and in test [13] was 10.3 to 50 µM throughout. Moreover, the IC50 in [14] was in the range of 10.3 to 50 µM.

Take `CO/N=C1\C(=O)N(CCOCCOc2ccc3c(C)cc(=O)oc3c2)c2ccc(C)cc21`: the IC50 in [8], in [9], in test [10], in test [11], in [12] and in [13] was 10.3 to 50 µM in each case. Further, the IC50 in test [14] fell in the range of 10.3 to 50 µM.

Regarding `O=c1oc2ccccc2cc1-c1nnc2n1N=C(c1ccc(Cl)c(Cl)c1)CS2`, the IC50 in [6] was 1.39 µM; in test [7], 1.73 µM.

For `Cc1cc(=O)oc2cc(OCCOCCN3C(=O)C(=O)c4cc(Cl)ccc43)ccc12`, the IC50 in [8], in [9], in test [10], in [11], in test [12] and in test [13] was 10.3 to 50 µM in each case. The IC50 in test [14] was in the range of 10.3 to 50 µM.

As for `CO/N=C1\C(=O)N(CCOCCOc2ccc3c(C)cc(=O)oc3c2)c2ccccc21`, the IC50 in [8], in test [9], in [10], in [11], in test [12] and in test [13] was 10.3 to 50 µM in each case. Moreover, the IC50 in [14] is 10.3 to 50 µM.

For `Cc1ccc2c(c1)C(=O)C(=O)N2CCOCCOc1ccc2c(C)cc(=O)oc2c1`, the half-inhibitory concentration (IC50) in test [8], in [9], in [10], in test [11], in [12] and in test [13] was 10.3 to 50 µM in each case. Also, the IC50 in [14] fell in the range of 10.3 to 50 µM.

For the compound `O=c1oc2ccccc2cc1-c1nnc2n1N=C(c1ccc([N+](=O)[O-])cc1)CS2`, the IC50 in test [6] and in test [7] was 1.01 to 5.72 µM in each case.

Consider `CC[C@]1(O)C[C@H]2CN(CCc3c([nH]c4ccccc34)[C@@](C(=O)OC)(c3cc4c(cc3OC)N(C=O)[C@H]3[C@@](O)(C(=O)OC)[C@H](OC(C)=O)[C@]5(CC)C=CCN6CC[C@]43[C@@H]65)C2)C1` [VINCRISTINE], for which the IC50 in test [6] stood at 1.08 µM; in test [7], 1.03 µM.

As for `Cc1ccc(-n2nc(C)n(-n3c(-c4cc5ccccc5oc4=O)cs/c3=N\c3ccc(Cl)cc3)c2=O)cc1`, the IC50 in test [1], in test [2], in test [3] and in test [4] was 0.16 to 1.12 µg/mL (≈ 0.295 to 2.07 µM) in each case.

With `Cc1nn(-c2ccccc2)c(=O)n1-n1c(-c2cc3ccccc3oc2=O)cs/c1=N\c1ccccc1`, the IC50 in [1], in test [2], in test [3] and in test [4] was 0.16 to 1.12 µg/mL (≈ 0.324 to 2.27 µM) each time.

In the case of `COc1ccc(/N=c2\scc(-c3cc4ccccc4oc3=O)n2-n2c(C)nn(-c3ccc(Br)cc3)c2=O)cc1`, the IC50 in test [1], in test [2], in [3] and in test [4] was 0.16 to 1.12 µg/mL (≈ 0.266 to 1.86 µM) throughout.

Regarding `O=c1oc2ccccc2cc1-c1nnc2n1N=C(c1ccc(Cl)cc1)CS2`, the IC50 in [6] and in test [7] was 1.01 to 5.72 µM in each case.

As to `Cc1ccc(-n2nc(C)n(-n3c(-c4cc5ccccc5oc4=O)cs/c3=N\c3ccccc3)c2=O)cc1`, the IC50 in [1], in test [2], in test [3] and in [4] was 0.16 to 1.12 µg/mL (≈ 0.315 to 2.21 µM) in each case.

As for `Cc1cc(=O)oc2cc(OCCOCCN3C(=O)/C(=N\O)c4cc(F)ccc43)ccc12`, the IC50 in test [8], in [9], in [10], in [11], in test [12] and in test [13] was 10.3 to 50 µM throughout. Moreover, the IC50 in test [14] was 10.3 to 50 µM.

Consider `Cc1cc(=O)oc2cc(OCCOCCN3C(=O)C(=O)c4ccccc43)ccc12`, for which the IC50 in test [8], in [9], in test [10], in [11], in test [12] and in test [13] was 10.3 to 50 µM in each case. In [14], the IC50 was in the range of 10.3 to 50 µM.

In the case of `CO/N=C1\C(=O)N(CCOCCOc2ccc3c(C)cc(=O)oc3c2)c2ccc(Cl)cc21`, the IC50 in test [8], in test [9], in test [10], in test [11], in test [12] and in test [13] was 10.3 to 50 µM each time. In [14], the IC50 is 10.3 to 50 µM.

Turning to `COc1ccc(C2=Nn3c(nnc3-c3cc4ccccc4oc3=O)SC2)cc1`, the IC50 in [6] and in test [7] was 1.01 to 5.72 µM each time.

For the compound `COc1ccc(/N=c2\scc(-c3cc4ccccc4oc3=O)n2-n2c(C)nn(-c3ccccc3)c2=O)cc1`, the IC50 in test [1], in [2], in test [3] and in [4] was 0.16 to 1.12 µg/mL (≈ 0.306 to 2.14 µM) throughout.

On to `Cc1ccc(C2=Nn3c(nnc3-c3cc4ccccc4oc3=O)SC2)cc1`, for which the concentration for half-maximal inhibition (IC50) in test [6] and in [7] was 1.01 to 5.72 µM in each case.

For `O=c1oc2ccccc2cc1C1=Nn2c(nnc2-c2cc3ccccc3oc2=O)SC1`, the concentration for half-maximal inhibition (IC50) in test [6] and in [7] was 1.01 to 5.72 µM each time.

On to `CC(=O)c1ccc(C2=Nn3c(nnc3-c3cc4ccccc4oc3=O)SC2)cc1`, for which the IC50 in test [6] and in [7] was 1.01 to 5.72 µM each time.

With `COc1cc([C@@H]2c3cc4c(cc3[C@@H](O[C@@H]3O[C@@H]5CO[C@@H](C)O[C@H]5[C@H](O)[C@H]3O)[C@H]3COC(=O)[C@H]23)OCO4)cc(OC)c1O` [ETOPOSIDE], the IC50 in [10], in test [12] and in test [14] was greater than 50 µM in each case.

Turning to `Cc1nn(-c2ccc(Br)cc2)c(=O)n1-n1c(-c2cc3ccccc3oc2=O)cs/c1=N\c1ccccc1`, the IC50 in test [1], in [2], in [3] and in [4] was 0.16 to 1.12 µg/mL (≈ 0.28 to 1.96 µM) each time.

For the compound `Cc1nn(-c2ccccc2)c(=O)n1-n1c(-c2cc3ccccc3oc2=O)cs/c1=N\c1ccc(Cl)cc1`, the IC50 in [1], in [2], in [3] and in [4] was 0.16 to 1.12 µg/mL (≈ 0.303 to 2.12 µM) throughout.

`Cc1cc(=O)oc2cc(OCCOCCN3C(=O)/C(=N\O)c4cc(Cl)ccc43)ccc12`: the IC50 in test [8], in test [9], in test [10], in test [11], in [12] and in test [13] was 10.3 to 50 µM in each case. In addition, the IC50 in [14] lay in the range of 10.3 to 50 µM.

As for `COc1ccc(-n2nc(C)n(-n3c(-c4cc5ccccc5oc4=O)cs/c3=N\c3ccccc3)c2=O)cc1`, the IC50 in test [1], in [2], in [3] and in test [4] was 0.16 to 1.12 µg/mL (≈ 0.306 to 2.14 µM) in each case.

Consider `Cc1cc(=O)oc2cc(OCCOCCN3C(=O)C(=O)c4cc(F)ccc43)ccc12`, for which the IC50 in test [8], in test [9], in test [10], in [11], in [12] and in [13] was 10.3 to 50 µM throughout. In addition, the IC50 in test [14] fell in the range of 10.3 to 50 µM.

As to `Cc1nn(-c2ccc(Br)cc2)c(=O)n1-n1c(-c2cc3ccccc3oc2=O)cs/c1=N\c1ccc(Cl)cc1`, the IC50 in test [1], in test [2], in [3] and in test [4] was 0.16 to 1.12 µg/mL (≈ 0.264 to 1.85 µM) in each case.

Consider `Cc1cc(-c2cc3cc(Cl)ccc3oc2=O)n(-c2nc(-c3ccccc3)cs2)n1`, for which, in test [15], the IC50 was 4.03 to 31.5 µM.

Turning to `COc1ccc(/N=c2\scc(-c3cc4ccccc4oc3=O)n2-n2c(C)nn(-c3ccc(OC)cc3)c2=O)cc1`, the IC50 in [1], in test [2], in test [3] and in test [4] was 0.16 to 1.12 µg/mL (≈ 0.289 to 2.02 µM) each time.

For the compound `COc1ccc(-c2csc(-n3nc(C)cc3-c3cc4cc(Br)ccc4oc3=O)n2)cc1`, the IC50 in [15] is 4.03 to 31.5 µM.

As for `Cc1cc(-c2cc3ccccc3oc2=O)n(-c2nc(-c3ccc(Br)cc3)cs2)n1`, in test [15], the IC50 was in the range of 4.03 to 31.5 µM.

In the case of `CO/N=C1\C(=O)N(CCOCCOc2ccc3c(C)cc(=O)oc3c2)c2ccc(F)cc21`, the IC50 in test [8], in test [9], in [10], in test [11], in [12] and in test [13] was 10.3 to 50 µM in each case. Further, in [14], the IC50 is 10.3 to 50 µM.

As to `Cc1cc(-c2cc3cc(Br)ccc3oc2=O)n(-c2nc(-c3ccc(Cl)cc3)cs2)n1`, the IC50 in test [15] fell in the range of 4.03 to 31.5 µM.
